# Patent US11040081B2 (CORPORATION GENACOL CANADA INC., priority 2016, dated 2021)
# Experiments:
# [1] = test system: patients diagnosed with osteoarthritis of the knee; experiment: Filipino study: WOMAC osteoarthritis index, Likert version; format: in vivo, human; conditions: Likert 0-4
# Method: Experimental, randomized, single blind observer, open-labeled, controlled trial. […] Group A subjects were given the oral collagen supplement (Genacol®, Blainville, Qc, Canada) 400 mg/capsule, 3 capsules daily at bedtime for 6 months, and a topical analgesic needed for knee pain. Group B, the control group, received the standard treatment using an oral non-steroidal inflammatory drug, in the form of aceclofenac 100 mg/tablet, 1 tablet twice a day for 5 days initially then as needed for pain, and topical analgesic (ketoprofen gel) to be applied twice a day as needed for pain. Both groups underwent physical therapy three times a week for two weeks. Heating modalities, range of motion exercises, and muscle strengthening exercises were administered on each therapy session. Follow up evaluation was done every month. On the sixth month of follow up, repeat radiography evaluation of the involved knee was done to determine if there were any changes in the knee joint. Compliance to the study medication was determined by asking the patient on their missed doses and by counting the remaining unconsumed capsules. Symptoms of osteoarthritis were assessed using the Western Ontario and McMaster Universities (WOMAC) osteoarthritis index, a validated and disease-specific questionnaire separately addressing severity of joint pain (5 questions), stiffness (2 questions), and limitation of physical function (17 questions) in the 48 hours before assessment. The Likert Version of WOMAC is rated on an ordinal scale of 0 to 4 with lower scores indicating lower levels of symptoms or physical disability. […] There is also an index score or global score, which is most commonly calculated by summating the scores for the 3 subscales. The questionnaire is self administered and takes 5 to 10 minutes to complete. Data was presented as mean±SD or frequency and percent distribution whichever was applicable. Chi square test was performed to indicate any significant difference in the distribution of male and female patients between the two groups while t-test was performed to check for any significant difference in characteristics that were continuous variables. Paired sample t-test was used to compare the significance in change in values (WOMAC and medial knee joint space) of the two groups from baseline to the sixth month follow up.
# [2] = test system: patients diagnosed with osteoarthritis of the knee; experiment: Filipino study: radiographic medial knee joint space width; format: in vivo, human; conditions: weight-bearing anteroposterior radiograph
# Method: Group A subjects were given the oral collagen supplement (Genacol®, Blainville, Qc, Canada) 400 mg/capsule, 3 capsules daily at bedtime for 6 months, and a topical analgesic needed for knee pain. Group B, the control group, received the standard treatment using an oral non-steroidal inflammatory drug, in the form of aceclofenac 100 mg/tablet, 1 tablet twice a day for 5 days initially then as needed for pain, and topical analgesic (ketoprofen gel) to be applied twice a day as needed for pain. Both groups underwent physical therapy three times a week for two weeks. Heating modalities, range of motion exercises, and muscle strengthening exercises were administered on each therapy session. Follow up evaluation was done every month. On the sixth month of follow up, repeat radiography evaluation of the involved knee was done to determine if there were any changes in the knee joint. Compliance to the study medication was determined by asking the patient on their missed doses and by counting the remaining unconsumed capsules. […] Using a standard ruler in millimeters, one experienced radiologist who was blinded as to the treatment of each subject measured the narrowest medial compartment of the tibiofemoral joint of each radiographed knee done at the start of the study. […]
smiles,measurement,setting,value
"O=C(O)COC(=O)Cc1ccccc1Nc1c(Cl)cccc1Cl [Group B, aceclofenac]","WOMAC Score, mean",[1]; 2nd ff-up (monthly follow-up),2.42
same,"WOMAC Score, mean",[1]; 3rd ff-up (monthly follow-up),2.29
same,"WOMAC Score, mean",[1]; 4th ff-up (monthly follow-up),2.26
same,"WOMAC Score, mean",[1]; 5th ff-up (monthly follow-up),2.17
same,"WOMAC Score, mean",[1]; 6th ff-up (sixth month),1.87
same,"WOMAC Score, mean","[1]; Baseline, Group A n=55, Group B n=58",2.91
same,"Median Knee Joint Space, mean",[2]; 6th ff-up (sixth month),3.8 mm
same,"Median Knee Joint Space, mean",[2]; Baseline,4.3 mm
